In paper PMC12828764, “The electrophilic metabolite of kynurenine, kynurenine-CKA, requires C151 in Keap1 to derepress Nrf2” (Redox Biology, 2025) one finds EC50 and pKa data, which are given here for two compounds.

Broadly, the EC50 is the midpoint of the concentration-response curve. Read a high EC50 as lower potency in that assay. As usually defined, the pKa is the pH at which an ionisable group is half protonated.

For data set [1], the system named is T1, Keap1.
T1 construct: cell lysate CETSA
The data set can be described thus: intact-protein MS and MS/MS adduct mapping, UV-Vis reaction kinetics with purified Keap1-BTB (no reaction with C151S); the IC50 is from ITDRF-CETSA of Keap1-mCherry in cell lysate. In kind it is binding.

Data set [2] has as its target Cys151 (UniProt position 151, SMGEKCVLHVM). The settings on record: not stated (reduced, unmodified C151 implied); cited from earlier work.

Consider `Nc1ccccc1C(=O)/C=C/C(=O)O` (mixture of isomers) [Kyn-CKA, (E)- and (Z)-(4-(2-aminophenyl)-4-oxobut-2-enoic acids], for which, in data set [1], the EC50 worked out at 12 µM.

Regarding “Kelch-like ECH-associated protein 1 (Keap1), BTB domain (not stated for the recombinant protein (probably Homo sapiens, inferred))”, the pKa in data set [2] is 6.9.
